Source: PMC10945559, “Forgotten Natural Products: Semisynthetic Development of Blasticidin S As an Antibiotic Lead” (ACS Medicinal Chemistry Letters, 2024)
Values after ≈ are worked out from the molar mass of the structure shown. Where two headings read alike, the source gives them in different places.

How the values were obtained:
[1] = test system: S. aureus 8810; assay: Broth microdilution antibacterial assay; assay type: cell-based, Staphylococcus aureus; details: for Selectivity index (CC50/IC50): MRC-5 CC50 / S. aureus IC50
Procedure, shortened: (§1)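 MIC by broth microdilution in cation-adjusted Mueller-Hinton broth; inoculum OD600 0.004 from mid-log culture; compounds 256–2 μg/mL final; 37 °C, 16–18 h; OD600 read, normalized to positive and vehicle controls; MIC = lowest concentration giving >90% inhibition; two biological replicates in duplicate, reported as range.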

[2] = test system: methicillin-resistant S. aureus (MRSA) ATCC 43300; assay: Broth microdilution antibacterial assay; assay type: cell-based, Staphylococcus aureus; details: for Selectivity index (CC50/IC50): MRC-5 CC50 / MRSA IC50; for IC50 / MIC: Staphylococcus aureus
Procedure, shortened: as §1

[3] = test system: Acinetobacter baumannii ATCC 17978; assay: Broth microdilution antibacterial assay; assay type: cell-based; details: for IC50 / MIC: Acinetobacter baumannii, ATCC17978; for Selectivity index (CC50/IC50): MRC-5 CC50 / A. baumannii IC50
Procedure, shortened: as §1

[4] = test system: Enterococcus faecalis ATCC 29212; assay: Broth microdilution antibacterial assay; assay type: cell-based; details: for IC50 / MIC: Enterococcus faecalis; for Selectivity index (CC50/IC50): MRC-5 CC50 / E. faecalis IC50
Procedure, shortened: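 Enterococcus faecalis ATCC 29212 was tested by broth microdilution in polypropylene 96-well flat-bottom plates. Compound stocks at 5.12 mg/mL in 50% DMSO/water were serially diluted, and 10 μL of each dilution was added to 190 μL of culture at OD600 0.004 in cation-adjusted Mueller-Hinton broth. Plates were incubated at 37 °C for 24 h, and OD600 was read to find the MIC.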

[5] = test system: Klebsiella pneumoniae ATCC 29665; assay: Broth microdilution antibacterial assay; assay type: cell-based; details: for IC50 / MIC: Klebsiella pneumoniae, ATCC29665; for Selectivity index (CC50/IC50): MRC-5 CC50 / K. pneumoniae IC50
Procedure, shortened: as §1

[6] = test system: Pseudomonas aeruginosa; assay: Broth microdilution antibacterial assay; assay type: cell-based; details: for Selectivity index (CC50/IC50): MRC-5 CC50 / P. aeruginosa IC50; for IC50 / MIC: Pseudomonas aeruginosa
Procedure, shortened: as §1

[7] = test system: Staphylococcus aureus ΔNorA; assay: Broth microdilution antibacterial assay; assay type: cell-based; details: for Selectivity index (CC50/IC50): MRC-5 CC50 / S. aureus ΔNorA IC50; for IC50 / MIC: Staphylococcus aureus
Procedure, shortened: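 Cultures grown overnight in LB were subcultured in cation-adjusted Mueller-Hinton broth to OD600 ~0.5, then diluted to OD600 0.004 and exposed to serially diluted compound (final 256–2 μg/mL, 50% DMSO/water stocks). After 16–18 h at 37 °C, OD600 was read; MIC is the lowest concentration inhibiting >90% growth.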

[8] = test system: vancomycin-resistant Enterococcus (VRE); assay: Broth microdilution antibacterial assay; assay type: cell-based; details: for IC50 / MIC: Enterococcus, VRE; for Selectivity index (CC50/IC50): MRC-5 CC50 / VRE IC50
Procedure, shortened: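 Vancomycin-resistant Enterococcus was grown overnight in LB broth, diluted to OD600 0.0 5 in cation-adjusted Mueller-Hinton broth, grown to OD600 ~0.5, then diluted to OD600 0.004. It was added at 190 μL per well to polypropylene 96-well plates holding 10 μL of serially diluted compound. Plates were incubated 24 h at 37 °C and growth was read at OD600.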

[9] = in vitro; assay type: cell-based, human; details: human; MRC-5 (lung fibroblast); 24 h; one biological replicate (n = 3); read-out: CC50 for human cells
Procedure, shortened: (§2)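 Human MRC-5 fibroblasts at 5000 cells/well exposed 24 h at 37 °C, 5% CO2 to compound dilutions (4–512 μg/mL; 256 and 512 μg/mL excluded owing to vehicle toxicity) in DMEM/10% FBS, with matched 50% DMSO vehicle dilutions as control. Viability by MTS-type reagent (4 h, A490), media-blank subtracted and normalized to vehicle; CC50 from triplicates.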

[10] = test system: MRC-5 lung fibroblast cells; assay: in vitro; assay type: cell-based, human; details: average of SI (CC50/IC50) over the bacteria tested
Procedure, shortened: as §2

[11] = parameters: method as in PMID 5842139; details: cited from earlier work

With `CN(CC[C@H](N)CC(=O)N[C@H]1C=C[C@H](n2ccc(N)nc2=O)O[C@@H]1C(=O)O)C(=N)N` [Compound 1, blasticidin S] the “Selectivity index (CC50/IC50)” value [1] was 0.6, the IC50 ([1]; Staphylococcus aureus, 8810) was 33.2 ± 0.8 µg/mL (≈ 78.6 µM) and the MIC ([1]; Staphylococcus aureus, 8810) was > 256 µg/mL. For the same molecule, the MIC ([1]; Staphylococcus aureus, 8810, read-out: Average Activity against S. aureus) was > 256 µg/mL, the “Selectivity index (CC50/IC50)” value [2] was 0.3 and the IC50 [2] was 59.7 ± 7.8 µg/mL (≈ 141 µM). It also gave an MIC [2] of 256 µg/mL (≈ 606 µM), an MIC ([2]; read-out: Average Activity against MRSA) of 256 µg/mL (≈ 606 µM) and an IC50 [3] of 104 ± 25 µg/mL (≈ 246 µM). The MIC [3] was > 256 µg/mL, the “Selectivity index (CC50/IC50)” value [3] was 0.2 and the IC50 ([4]; ATCC29212) was 26.3 ± 13 µg/mL (≈ 62.3 µM). The MIC ([4]; ATCC29212, 24 h) was 32 to 64 µg/mL (≈ 75.7 to 151 µM), the MIC ([4]; ATCC29212, read-out: Average Activity against E. faecalis) was 64 µg/mL (≈ 151 µM) and the “Selectivity index (CC50/IC50)” value [4] was 0.8. For the same molecule, the IC50 [5] was 42.3 ± 3.5 µg/mL (≈ 100 µM), the MIC [5] was 128 µg/mL (≈ 303 µM) and the “Selectivity index (CC50/IC50)” value [5] was 0.5. The “Selectivity index (CC50/IC50)” value [6] was 0.3, the IC50 [6] was 61 ± 6 µg/mL (≈ 144 µM) and the MIC [6] was 256 µg/mL (≈ 606 µM). The “Selectivity index (CC50/IC50)” value [7] was 0.1, the IC50 [7] was 140 ± 8.7 µg/mL (≈ 331 µM) and the MIC [7] was > 256 µg/mL. The IC50 [8] was 58 ± 9.4 µg/mL (≈ 137 µM), the MIC ([8]; 24 h) was 256 µg/mL (≈ 606 µM) and the MIC ([8]; read-out: Average Activity against VRE) was 256 µg/mL (≈ 606 µM). The “Selectivity index (CC50/IC50)” value [8] was 0.3, the CC50 at 24 h [9] was 20.1 µg/mL (≈ 47.6 µM) and the average selectivity index [10] was 0.4. For the same molecule, the pKa ([11]; primary amine) was 8.0 and the pKa ([11]; protonated guanidine) was > 12.5.
In the case of `CN(CC[C@H](N)CC(=O)N[C@H]1C=C[C@H](n2ccc(N)nc2=O)O[C@@H]1C(N)=O)C(=N)N` [Compound 2, P10], the “Selectivity index (CC50/IC50)” value [1] is reported as 1.3, the IC50 ([1]; Staphylococcus aureus, 8810, S. aureus, average of two biological replicates ± S.D., read-out: IC50) is reported as 4.7 ± 1 µg/mL (≈ 11.2 µM) and the MIC ([1]; Staphylococcus aureus, 8810, S. aureus, lowest concentration inhibiting >90% of growth, range from biological replicates, read-out: MIC) is reported as 32 µg/mL (≈ 75.9 µM). For the same molecule, the MIC ([1]; Staphylococcus aureus, 8810, average MIC, Table S3, read-out: Average Activity against S. aureus) was 32 µg/mL (≈ 75.9 µM), the “Selectivity index (CC50/IC50)” value [2] was 0.8 and the IC50 ([2]; MRSA, average of two biological replicates ± S.D., read-out: IC50) was 7 ± 1 µg/mL (≈ 16.6 µM). The MIC ([2]; MRSA, lowest concentration inhibiting >90% of growth, range from biological replicates, read-out: MIC) was 32 µg/mL (≈ 75.9 µM), the MIC ([2]; average MIC, Table S3, read-out: Average Activity against MRSA) was 32 µg/mL (≈ 75.9 µM) and the IC50 ([3]; A. baumannii, average of two biological replicates ± S.D., read-out: IC50) was 4.5 ± 0.4 µg/mL (≈ 10.7 µM). The MIC ([3]; A. baumannii, lowest concentration inhibiting >90% of growth, range from biological replicates, read-out: MIC) was 16 µg/mL (≈ 38 µM), the “Selectivity index (CC50/IC50)” value [3] was 1.3 and the MIC ([4]; ATCC29212, E. faecalis, 24 h, lowest concentration inhibiting >90% of growth, range from biological replicates, read-out: MIC) was 16 to 32 µg/mL (≈ 38 to 75.9 µM). The IC50 ([4]; ATCC29212, E. faecalis, average of two biological replicates ± S.D. (18: one biological replicate), read-out: IC50) was 5.1 ± 4.3 µg/mL (≈ 12.1 µM), the MIC ([4]; ATCC29212, average MIC, Table S3, read-out: Average Activity against E. faecalis) was 16 µg/mL (≈ 38 µM) and the “Selectivity index (CC50/IC50)” value [4] was 1.2. The IC50 ([5]; K. pneumoniae, average of two biological replicates ± S.D., read-out: IC50) was 7.6 ± 1.3 µg/mL (≈ 18 µM), the MIC ([5]; K. pneumoniae, lowest concentration inhibiting >90% of growth, range from biological replicates, read-out: MIC) was 32 µg/mL (≈ 75.9 µM) and the “Selectivity index (CC50/IC50)” value [5] was 0.8. For the same molecule, the “Selectivity index (CC50/IC50)” value [6] was 0.4, the IC50 ([6]; P. aeruginosa, average of two biological replicates ± S.D., read-out: IC50) was 14.6 ± 1.5 µg/mL (≈ 34.6 µM) and the MIC ([6]; P. aeruginosa, lowest concentration inhibiting >90% of growth, range from biological replicates, read-out: MIC) was 64 µg/mL (≈ 152 µM). For the same molecule, the “Selectivity index (CC50/IC50)” value [7] was 0.4, the IC50 [7] was 14 ± 0.3 µg/mL (≈ 33.2 µM) and the MIC [7] was 64 to 128 µg/mL (≈ 152 to 304 µM). It also gave an MIC ([8]; average MIC, Table S3, read-out: Average Activity against VRE) of 64 µg/mL (≈ 152 µM), an MIC ([8]; 24 h, lowest concentration inhibiting >90% of growth, range from biological replicates, read-out: MIC) of 64 µg/mL (≈ 152 µM) and an IC50 ([8]; average of two biological replicates ± S.D., read-out: IC50) of 15 ± 8.6 µg/mL (≈ 35.6 µM). For the same molecule, the “Selectivity index (CC50/IC50)” value [8] was 0.4, the CC50 at 24 h [9] was 5.9 µg/mL (≈ 14 µM) and the average selectivity index [10] was 0.8.
